# Patent US6946452B2, “Use of N-acetyl-D-glucosamine in the manufacture of pharmaceutical useful for treating motion sickness” (Third Military Medical University Chinese People's …, priority 2001, dated 2005)
# Key:
# [1] = in vivo
# [2] = in vivo; remark: listed apart in the source
# From the text: 1. acute toxicity test: including tests of administrating medicine by oral, Intravenous injection and maximum limit amount for administration;
# III. Observation of Curative Efficiency.
# Proteus Mirabilis = assay: Promoting wave test (bacterial bio-wave growth model); format: cell-based; settings: final concentration of 0.5% on LB plate, 37° C., compared with control
# From the text: I. Promoting Wave Test of N-acetyl-D-glucosamine
# 1. Experimental Materials and Method:
# 1.1 Samples: Pure Compound of Formula (I)
# 1.2 Experimental Materials: • Strain: Proteus Mirabilis (which should comply with the following biological reaction characteristics: dynamics (+), urease (+), lactose (−), glucose (+), H2S (−), phenylalanine deaminase (+). • Culture medium: modified LB culture medium (the components of the composition are: trytones of 1%, yeast extract of 0.5%, sodium chloride 1%, glucose of 0.1%, TTC of 0.002% and pH=7.2˜7.4).
# 2. Experimental Results and Evaluation: • The experiment adopts a bio-wave model which is used to research the promoting wave function of N-acetyl-D-glucosamine. […] II. Toxicological Test of the Compound of Formula (I), including: […]
# motion sickness = assay: Observation of curative efficiency in patients suffering from motion sickness; format: in vivo; settings: for Not effective (number of persons) / Effective (number of persons): 20 persons; for Effective (number of persons): 100 km by car and by small steamboat
# Experimental: 80 patients suffering from motion sickness were selected and randomly divided into four groups: a group to whom N-acetyl-D-glucosamine was administered in a long term (800 mg of NAG/person/day), a group to whom N-acetyl-D-glucosamine was administered in a short term (6000 mg of NAG/person/day), placebo group (6000 mg of glucose/person/day), a group to whom no medicament was administered. A double blind method was adopted, observing the curative efficiency for traveling 100 kilometers by car (its velocity was 20 kilometers/hour) and traveling 100 kilometers by a small steamboat. Compared with the situation before traveling by car, the following symptoms being relieved or removed will be judged to be effective: dizziness, nausea and vomiting.
# [3] = long term group, 800 mg of NAG/person/day
# [4] = short term group, 6000 mg of NAG/person/day
compound,measurement,setting,value
CC(=O)N[C@H]1C(O)O[C@H](CO)[C@@H](O)[C@@H]1O (stereo partly drawn) [N-acetyl-D-glucosamine],maximum dosage with no toxicosis reaction,[1],1 g/kg
same,dosage at which acute toxicosis reaction had not appeared,[2],more than 2 g/kg
same,promoting wave function (concentric ring pattern on LB plate),Proteus Mirabilis,many fine waves on each ring emerged
same,Not effective (number of persons),motion sickness; [3],2
same,Effective (number of persons),motion sickness; [3],18
same,effectivity of preventing and treating motion sickness,motion sickness; p<0.05 vs placebo group and no-administration group,more than 90%
same,Not effective (number of persons),motion sickness; [4],1
same,Effective (number of persons),motion sickness; [4],19
